Results: PMC6364417, “Kinase inhibitor library screening identifies synergistic drug combinations effective in sensitive and resistant melanoma cells” (Journal of Experimental & Clinical Cancer Research : CR, 2019)
Read-outs that look alike come from different tables or passages of the source. Blank lines part the entries; values can stand above or below the molecule they belong to.

Columns and labels:
[1] = test system: IGR37-XP cells (Vemurafenib-resistant); test: Dose-response curves and IC50, PrestoBlue cell viability, 72 h; conditions: read-out: Half-maximal inhibitory concentration (IC50)
[2] = test system: A375 cells (parental sensitive) tumors; test: In vivo assay, subcutaneous melanoma tumors in NSG mice; set-up: species or system NOD scid gamma (NSG) mice; conditions: NSG mice with A375 or A375-XP tumors, 8 days of daily treatment
Description: NOD scid gamma (NSG) mice were bred in-house and experiments were performed according to all applicable laws and regulations, after receiving approval by the institution’s animal experimentation ethics committee and the veterinarian service of the Ministry of Agriculture (Permit Number: 18-MDM-01). Single parental sensitive A375 cells (0.5 × 10^6 cells) and Vemurafenib-resistant A375-XP cells (2 × 10^6 cells) were resuspended in 100 μL of 1:1 mixed serum-free medium and matrigel (BD Biosciences) and injected subcutaneously in 6–8 week-old mice. […] Control mice received the respective vehicle by oral gavage and intraperitoneal injection. […] Statistical analysis was done using a two-way ANOVA followed by post-hoc Tukey’s multiple comparison tests.

[3] = test system: IGR37-GP cells (Dabrafenib-resistant); test: Dose-response curves and IC50, PrestoBlue cell viability, 72 h; conditions: read-out: Half-maximal inhibitory concentration (IC50)
[4] = test system: 501Mel-XP cells (Vemurafenib-resistant); test: as above; conditions: read-out: Half-maximal inhibitory concentration (IC50)
[5] = test system: A375 cells; test: Synergy determination with the Chou-Talalay method (CompuSyn), cell viability 72 h; assay type: cell-based, human; conditions: 72 h cell viability, Chou-Talalay / Synergyfinder
Description: The Chou-Talalay method to determine possible synergistic effects of selected kinase inhibitor combinations was used as described in [19]. […] Cells were treated with either single inhibitors or combinations thereof at indicated amounts in technical triplicates. The amounts were pre-determined from each inhibitor’s IC50 value and inhibitors were assayed in a defined dilution series and at constant ratio when combined. […] Combination Index (CI) values showing either synergy (< 1) or antagonism (> 1) were calculated with the CompuSyn software (ComboSyn, Inc).

[6] = test system: 501Mel-GP cells (Dabrafenib-resistant); test: Dose-response curves and IC50, PrestoBlue cell viability, 72 h; conditions: read-out: Half-maximal inhibitory concentration (IC50)
[7] = test system: 501Mel cells (parental); test: as above; conditions: read-out: Half-maximal inhibitory concentration (IC50)
[8] = test system: IGR37 cells (parental); test: as above; conditions: read-out: Half-maximal inhibitory concentration (IC50)
[9] = test system: PARP cleavage; test: Western blot, PARP cleavage in A375 cells; assay type: cell-based, human; conditions: A375, A375-XP, A375-GP; 24 h treatment
[10] = test system: NHEM (normal human epidermal melanocytes); test: Dose-response curves and IC50 in non-cancer cells, cell viability, 72 h; conditions: for effect on healthy cells, cell viability (in words): melanocytes (NHEM)
Description: (§1) The IC50 values (nM) were calculated as indicated in Methods.

[11] = test system: NHDF (normal human dermal fibroblasts); test: as above; conditions: for effect on healthy cells, cell viability (in words): fibroblasts (NHDF)
Description: as §1

[12] = test system: A375 cells (parental); test: Dose-response curves and IC50, PrestoBlue cell viability, 72 h; assay type: cell-based, human; conditions: read-out: Half-maximal inhibitory concentration value (IC50), Mean
[13] = test system: A375-XP cells (Vemurafenib-resistant); test: as above; assay type: cell-based, human; conditions: n.e. = did not suppress growth below 50% in the tested concentration range; for IC50: read-out: Half-maximal inhibitory concentration value (IC50), Mean
[14] = test system: A375-GP cells (Dabrafenib-resistant); test: as above; assay type: cell-based, human; conditions: n.e. = did not suppress growth below 50% in the tested concentration range; for IC50: read-out: Half-maximal inhibitory concentration value (IC50), Mean
[15] = test system: A375 parental cells expressing iRFP; test: Long-term inhibitor treatment, iRFP fluorescence proliferation monitoring; assay type: cell-based, human
Description: A375 parental and BRAFi-resistant cells, virally transduced with the near-infrared fluorescent protein (iRFP) were seeded at a density of 2500 cells/well in a 24-well plate (Greiner) in at least technical triplicates. Inhibitors, single or in combination, were added at the indicated amounts and replenished every 72 h for a duration of 76 days. To assess whether any remaining cells have become resistant to the treatment and would re-emerge, the drugs were removed and the cells underwent “drug holidays” for an additional 21 days. During the long-term treatment, cell proliferation was monitored bi-weekly on a LI-COR Odyssey Infrared Imaging System (LI-COR Biosciences). Fluorescence intensity was quantified with the Image Studio™ Lite software (LI-COR Biosciences).

[16] = test system: 501Mel-GP cells (Dabrafenib-resistant); test: Kinase inhibitor library screening, PrestoBlue cell viability, 1 or 10 μM, 72 h; conditions: 501Mel GP
[17] = test system: IGR37-GP cells (Dabrafenib-resistant); test: as above; conditions: IGR37 GP
[18] = test system: 501Mel-XP cells (Vemurafenib-resistant); test: as above; conditions: 501Mel XP
[19] = test system: IGR37-XP cells (Vemurafenib-resistant); test: as above; conditions: IGR37 XP
[20] = test system: A375-GP cells (Dabrafenib-resistant); test: as above; conditions: A375 GP
[21] = test system: A375-XP cells (Vemurafenib-resistant); test: as above; conditions: A375 XP
[22] = test system: IGR37 cells (parental); test: as above; conditions: IGR37 Parental
[23] = test system: A375 cells (parental); test: as above; conditions: A375 Parental
[24] = test system: 501Mel cells (parental); test: as above; conditions: 501Mel Parental
Procedure, shortened: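 Each compound was applied to parental melanoma cells and to derivatives made resistant to Vemurafenib or Dabrafenib. After treatment, viability was read with PrestoBlue on a plate reader and expressed as % of untreated cells, with each line run at least in duplicate.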

[25] = Homo sapiens, A-375, n.e. = did not suppress growth below 50% in the tested concentration range
[26] = n.e. = did not suppress growth below 50% in the tested concentration range

SMILES: NC(=O)Nc1cc(-c2cccc(F)c2)sc1C(=O)N[C@H]1CCCNC1 [AZD7762]
- IC50 ([1]; Homo sapiens, 72 h): 58 nM
- body weight and side effects during treatment (in words) [2]: did not lose weight
- IC50 ([3]; Homo sapiens, 72 h): 70 nM
- IC50 ([4]; Homo sapiens, 72 h): 188 nM
- synergistic effects with the BRAF inhibitors Vemurafenib and/or Dabrafenib (in words) [5]: clear synergistic effects
- IC50 ([6]; Homo sapiens, 72 h): 426 nM
- IC50 ([7]; Homo sapiens, 72 h): 306 nM
- IC50 ([8]; Homo sapiens, IGR-37, 72 h): 65 nM
- Cleavage of PARP (in words) [9]: induced
- IC50 ([10]; Homo sapiens, Melanocyte, read-out: Half-maximal inhibitory concentration (IC50), NHEM Mean): 358 nM
- effect on healthy cells, cell viability (in words) [10]: very modest effects
- IC50 ([11]; Homo sapiens, NHDF, read-out: Half-maximal inhibitory concentration (IC50), NHDF Mean): 532 nM
- effect on healthy cells, cell viability (in words) [11]: very modest effects
- IC50 [12, 25]: 311 nM
- IC50 ([13]; Homo sapiens): 366 nM
- IC50 ([14]; Homo sapiens): 299 nM

SMILES: O=c1[nH]c2ccc(Cl)cc2c(N[C@@H]2CN3CCC2CC3)c1-c1nc2ccccc2[nH]1 [CHIR-124, reference compound]
- long-term cell growth under drug until day 76 (in words) ([15]; 150 nM, even with Dabrafenib (data not shown)): not sufficient to prevent cells to grow back
- long-term cell growth under drug until day 76 (in words) ([15]; 300 nM single treatment): killed most of the cells
- synergistic effects with the BRAF inhibitors Vemurafenib and/or Dabrafenib (in words) [5]: synergistic effects only with Dabrafenib
- cell viability (kinase inhibitor library screening) ([16]; 1μΜ, 72 h): 40.5%
- cell viability (kinase inhibitor library screening) ([16]; 10μΜ, 72 h): 0.146%
- cell viability (kinase inhibitor library screening) ([17]; 1μΜ, 72 h): 91.0%
- cell viability (kinase inhibitor library screening) ([17]; 10μΜ, 72 h): 2.3%
- cell viability (kinase inhibitor library screening) ([18]; 1μΜ, 72 h): 26.0%
- cell viability (kinase inhibitor library screening) ([18]; 10μΜ, 72 h): 0.156%
- cell viability (kinase inhibitor library screening) ([19]; 1μΜ, 72 h): 63.5%
- cell viability (kinase inhibitor library screening) ([19]; 10μΜ, 72 h): 1.6%
- cell viability (kinase inhibitor library screening) ([20]; 1μΜ, 72 h): 18.2%
- cell viability (kinase inhibitor library screening) ([20]; 10μΜ, 72 h): 1.5%
- cell viability (kinase inhibitor library screening) ([21]; 1μΜ, 72 h): 40.8%
- cell viability (kinase inhibitor library screening) ([21]; 10μΜ, 72 h): 1.5%
- cell viability (kinase inhibitor library screening) ([22]; 1μΜ, 72 h): 57.6%
- cell viability (kinase inhibitor library screening) ([22]; 10μΜ, 72 h): 1.0%
- cell viability (kinase inhibitor library screening) ([23]; 10μΜ, 72 h): 2.4%
- cell viability (kinase inhibitor library screening) ([23]; 1μΜ, 72 h): 23.5%
- cell viability (kinase inhibitor library screening) ([24]; 1μΜ, 72 h): 47.8%
- cell viability (kinase inhibitor library screening) ([24]; 10μΜ, 72 h): 0.9%
- IC50 [12, 26]: 233 nM
- IC50 [13]: 321 nM
- IC50 [14]: 278 nM

- Half-maximal inhibitory concentration value (IC50), Mean [13]: n.e.
- Half-maximal inhibitory concentration value (IC50), Mean [14]: n.e.
SMILES: CC(C)(C)c1nc(-c2cccc(NS(=O)(=O)c3c(F)cccc3F)c2F)c(-c2ccnc(N)n2)s1 [Dabrafenib]
- effect on healthy cells, cell viability (in words) [10]: did not have any effect
- effect on healthy cells, cell viability (in words) [11]: did not have any effect
- IC50 [12, 25]: 1.9 nM

- IC50 [13]: 3200 nM
- IC50 [14]: 1900 nM
SMILES: Cc1ccc(C(=O)Nc2cccc(C(F)(F)F)c2)cc1Nc1nc(-c2cccnc2)nc2c1cnn2C [NVP-BHG712, reference compound]
- IC50 ([1]; IGR37-XP (Vemurafenib-resistant), 72 h cell viability): 5950 nM
- IC50 ([3]; IGR37-GP (Dabrafenib-resistant), 72 h cell viability): 7020 nM
- IC50 ([4]; 501Mel-XP (Vemurafenib-resistant), 72 h cell viability): 3820 nM
- cell viability (kinase inhibitor library screening) ([16]; 1μΜ, in %): 107.1
- cell viability (kinase inhibitor library screening) ([16]; 10μΜ, in %): 25.6
- cell viability (kinase inhibitor library screening) ([17]; 1μΜ, in %): 97.4
- cell viability (kinase inhibitor library screening) ([17]; 10μΜ, in %): 51.2
- cell viability (kinase inhibitor library screening) ([18]; 1μΜ, in %): 121.0
- cell viability (kinase inhibitor library screening) ([18]; 10μΜ, in %): 2.2
- cell viability (kinase inhibitor library screening) ([19]; 1μΜ, in %): 103.3
- cell viability (kinase inhibitor library screening) ([19]; 10μΜ, in %): 17.6
- cell viability (kinase inhibitor library screening) ([20]; 1μΜ, in %): 80.6
- cell viability (kinase inhibitor library screening) ([20]; 10μΜ, in %): 37.1
- cell viability (kinase inhibitor library screening) ([21]; 1μΜ, in %): 84.7
- cell viability (kinase inhibitor library screening) ([21]; 10μΜ, in %): 29.1
- cell viability (kinase inhibitor library screening) ([22]; 1μΜ, in %): 107.5
- cell viability (kinase inhibitor library screening) ([22]; 10μΜ, in %): 83.5
- cell viability (kinase inhibitor library screening) ([23]; 1μΜ, in %): 103.3
- cell viability (kinase inhibitor library screening) ([23]; 10μΜ, in %): 63.1
- cell viability (kinase inhibitor library screening) ([24]; 1μΜ, in %): 103.2
- cell viability (kinase inhibitor library screening) ([24]; 10μΜ, in %): 27.8
- IC50 ([6]; 501Mel-GP (Dabrafenib-resistant), 72 h cell viability): 4880 nM
- IC50 ([7]; 501Mel parental, 72 h cell viability): 4480 nM
- IC50 ([8]; IGR37 parental, 72 h cell viability): 5780 nM
- IC50 [12, 26]: 4420 nM

SMILES: Cc1ccc(C(=O)Nc2ccc(CN3CCN(C)CC3)c(C(F)(F)F)c2)cc1C#Cc1cnc2cccnn12 [Ponatinib]
- IC50 ([1]; Homo sapiens, 72 h): 1430 nM
- IC50 ([3]; Homo sapiens, 72 h): 1350 nM
- IC50 ([4]; Homo sapiens, 72 h): 1340 nM
- synergistic effects with the BRAF inhibitors Vemurafenib and/or Dabrafenib (in words) [5]: did not act synergistically
- IC50 ([6]; Homo sapiens, 72 h): 1400 nM
- IC50 ([7]; Homo sapiens, 72 h): 1170 nM
- IC50 ([8]; Homo sapiens, IGR-37, 72 h): 1080 nM
- IC50 [12, 25]: 628 nM
- IC50 ([13]; Homo sapiens): 177 nM
- IC50 ([14]; Homo sapiens): 226 nM

- IC50 ([13]; Homo sapiens): 59 nM
- IC50 ([14]; Homo sapiens): 50 nM
SMILES: COc1cc(OC)c(/C=C/S(=O)(=O)Cc2ccc(OC)c(NCC(=O)O)c2)c(OC)c1 [Rigosertib]
- IC50 ([1]; Homo sapiens, 72 h): 121 nM
- IC50 ([3]; Homo sapiens, 72 h): 90 nM
- IC50 ([4]; Homo sapiens, 72 h): 63 nM
- synergistic effects with the BRAF inhibitors Vemurafenib and/or Dabrafenib (in words) [5]: did not act synergistically
- IC50 ([6]; Homo sapiens, 72 h): 70 nM
- IC50 ([7]; Homo sapiens, 72 h): 80 nM
- IC50 ([8]; Homo sapiens, IGR-37, 72 h): 103 nM
- IC50 [12, 25]: 64 nM
